Data as given in US4810636A, “Chromogenic acridinone enzyme substrates” (Miles Inc., priority 1987, dated 1989).

How the values were obtained:
[1] = Solubility and stability in aqueous buffered / basic solution; format: physicochemical
Text: According to a preferred embodiment of the present invention, chromogenic enzyme substrate compounds of the general formula (8), where Y is a radical of an enzyme-specific sugar moiety Y--OH, preferably β-D-galactose or β-D-glucose, and R and R' are methyl, can be prepared by reacting the dimethyl chromogen (20) with a 1-halogeno-derivative of the enzyme-specific moiety, preferably a 1-bromo-derivative thereof, substituted at the hydroxy-positions thereof with protecting groups, preferably acetate protecting groups, to result in per-O-substituted derivatives which can be hydrolyzed to remove such protecting groups to obtain the desired chromogenic enzyme substrate compound. For example, the β-D-galactoside of (20), the chromogenic enzyme substrate (8) where Y is the radical of β-D-galactose and R and R' are methyl, can be prepared for use in the determination of β-D-galactosidase. In particular, the dimethyl acridinone chromogen (20), where R and R' are methyl in the general formula (2), is reacted with acetobromogalactose and silver oxide in ethyl acetate/quinoline to prepare the 7-(tetra-O-acetyl-β-D-galactopyranosyloxy)-9,9-dimethyl-9H-acridin-2-one (31) of the formula: [drawing 13] […] The resulting galactoside (32) has an absorbance (λmax) of 438 nm (yellow), an extinction coefficient of 27,400, and is soluble in a phosphate buffered solution (pH 7.4). […]

[2] = Visible absorbance (λmax, extinction coefficient) of substrate and chromogen; format: physicochemical; details: for absorbance (λmax): uncleaved substrate or protonated chromogen
Text: According to a preferred embodiment of the present invention, chromogenic enzyme substrate compounds of the general formula (8), where Y is a radical of an enzyme-specific sugar moiety Y--OH, preferably β-D-galactose or β-D-glucose, and R and R' are methyl, can be prepared by reacting the dimethyl chromogen (20) with a 1-halogeno-derivative of the enzyme-specific moiety, preferably a 1-bromo-derivative thereof, substituted at the hydroxy-positions thereof with protecting groups, preferably acetate protecting groups, to result in per-O-substituted derivatives which can be hydrolyzed to remove such protecting groups to obtain the desired chromogenic enzyme substrate compound. For example, the β-D-galactoside of (20), the chromogenic enzyme substrate (8) where Y is the radical of β-D-galactose and R and R' are methyl, can be prepared for use in the determination of β-D-galactosidase. In particular, the dimethyl acridinone chromogen (20), where R and R' are methyl in the general formula (2), is reacted with acetobromogalactose and silver oxide in ethyl acetate/quinoline to prepare the 7-(tetra-O-acetyl-β-D-galactopyranosyloxy)-9,9-dimethyl-9H-acridin-2-one (31) of the formula: [drawing 13] The acetate protecting groups of (31) are then hydrolyzed with sodium methoxide in methanol to result in the desired 7-β-D-galactopyranosyloxy-9,9-dimethyl-9H-acridin-2-one (32) of the present invention of the formula: [drawing 14] The resulting galactoside (32) has an absorbance (λmax) of 438 nm (yellow), an extinction coefficient of 27,400, and is soluble in a phosphate buffered solution (pH 7.4).
(§1) (C), 2462 (1970), where R and R' in the general formula (2) are methyl.

[3] = Phenolic pKa of the chromogen; format: physicochemical
Text: as §1

[4] = molecular target: T1, β-D-galactosidase (Escherichia coli, UniProt P00722); assay: Analytical test device for β-D-galactosidase, reflectance dose response; format: biochemical; details: 0.02-0.20 ng/ml β-D-galactosidase, reflectance at 630 nm after 50-70 seconds
Experimental: A 2 inch wide×2 inch long sheet of Whatman 54 filter paper (Whatman, Inc., Clifton, N.J., U.S.A.) was immersed in an aqueous solution comprising 0.3M bicine buffer (pH 7.9) and 4.0 mM MgCl2 and air-dried overnight at room temperature. The filter paper was then immersed in a methanol solution containing 15 mM of the substrate product (32) from Example 3 and air-dried for one hour at room temperature to obtain a filter paper which was yellow in color.
A 0.5 cm wide×1.0 cm long segment of the above-described impregnated yellow filter paper was mounted onto and along the edge of one surface of a 0.5 cm×8.125 cm polystyrene support (Tricite®, Dow Chemical Co., Midland, Mich., U.S.A.) previously laminated with a 2 mm strip of Double Stick® double-faced adhesive tape (3M Company, St. Paul, Minn., U.S.A.) for use as an analytical test device for the detection of β-D-galactosidase from a liquid test sample.
Ten analytical test devices were prepared according to Example 4 and employed to determine the dose response of the substrate product compound (32) of the present invention to β-D-galactosidase.
[…] aqueous test sample solutions containing β-D-galactosidase concentrations of 0.02 ng/ml, 0.04 ng/ml, 0.06 ng/ml, 0.08 ng/ml, 0.12 ng/ml, 0.14 ng/ml, 0.16 ng/ml, 0.18 ng/ml and 0.20 ng/ml were prepared and an analytical test device dipped into each.

[5] = molecular target: T1, β-D-galactosidase; assay: Hydrolysis of the galactoside substrate by β-D-galactosidase (Kcat, Km); format: biochemical; details: 50 mM phosphate buffered solution (pH 7.4) containing 5 mM MgCl2
Text: According to a preferred embodiment of the present invention, chromogenic enzyme substrate compounds of the general formula (8), where Y is a radical of an enzyme-specific sugar moiety Y--OH, preferably β-D-galactose or β-D-glucose, and R and R' are methyl, can be prepared by reacting the dimethyl chromogen (20) with a 1-halogeno-derivative of the enzyme-specific moiety, preferably a 1-bromo-derivative thereof, substituted at the hydroxy-positions thereof with protecting groups, preferably acetate protecting groups, to result in per-O-substituted derivatives which can be hydrolyzed to remove such protecting groups to obtain the desired chromogenic enzyme substrate compound. For example, the β-D-galactoside of (20), the chromogenic enzyme substrate (8) where Y is the radical of β-D-galactose and R and R' are methyl, can be prepared for use in the determination of β-D-galactosidase. In particular, the dimethyl acridinone chromogen (20), where R and R' are methyl in the general formula (2), is reacted with acetobromogalactose and silver oxide in ethyl acetate/quinoline to prepare the 7-(tetra-O-acetyl-β-D-galactopyranosyloxy)-9,9-dimethyl-9H-acridin-2-one (31) of the formula: [drawing 13] […] The resulting galactoside (32) has an absorbance (λmax) of 438 nm (yellow), an extinction coefficient of 27,400, and is soluble in a phosphate buffered solution (pH 7.4).

T1 sequence (P00722 2-1024): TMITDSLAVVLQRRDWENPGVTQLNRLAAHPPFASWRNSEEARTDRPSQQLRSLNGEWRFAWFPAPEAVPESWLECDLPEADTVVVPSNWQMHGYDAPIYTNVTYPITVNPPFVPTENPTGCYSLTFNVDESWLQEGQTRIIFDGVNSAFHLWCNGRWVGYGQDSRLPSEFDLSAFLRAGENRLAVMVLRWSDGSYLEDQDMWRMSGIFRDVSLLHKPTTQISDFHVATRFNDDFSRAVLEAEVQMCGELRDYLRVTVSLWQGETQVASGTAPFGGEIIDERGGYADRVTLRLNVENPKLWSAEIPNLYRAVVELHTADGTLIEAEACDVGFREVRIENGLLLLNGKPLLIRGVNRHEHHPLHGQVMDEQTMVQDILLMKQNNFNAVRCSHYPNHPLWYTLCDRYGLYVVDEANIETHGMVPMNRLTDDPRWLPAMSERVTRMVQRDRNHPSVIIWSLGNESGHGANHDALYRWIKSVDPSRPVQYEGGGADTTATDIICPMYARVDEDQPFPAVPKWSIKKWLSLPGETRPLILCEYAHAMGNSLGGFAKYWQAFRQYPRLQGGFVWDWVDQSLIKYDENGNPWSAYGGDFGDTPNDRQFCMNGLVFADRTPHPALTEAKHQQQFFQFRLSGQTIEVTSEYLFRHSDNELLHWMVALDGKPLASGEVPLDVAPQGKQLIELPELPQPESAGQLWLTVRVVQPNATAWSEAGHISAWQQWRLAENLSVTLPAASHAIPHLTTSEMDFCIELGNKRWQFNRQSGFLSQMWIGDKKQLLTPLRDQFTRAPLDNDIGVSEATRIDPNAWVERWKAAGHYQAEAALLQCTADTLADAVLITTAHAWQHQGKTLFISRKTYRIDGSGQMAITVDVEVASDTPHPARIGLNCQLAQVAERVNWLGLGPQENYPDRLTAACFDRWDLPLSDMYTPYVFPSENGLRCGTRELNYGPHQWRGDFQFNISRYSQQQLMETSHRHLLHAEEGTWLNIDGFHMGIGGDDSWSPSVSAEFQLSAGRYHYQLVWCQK

Row | SMILES | solubility and stability ([1]; aqueous, basic solutions) | shift in the absorbance maximum on deprotonation [2] [nm] | absorbance of the deprotonated anion ([2]; deprotonated chromogen) [nm] | extinction coefficient of the anion ([2]; pH=10, in M-1 cm-1 (unit assumed)) | absorbance (λmax) [2] [nm] | phenolic pKa [3] | dose response of reflectance to β-D-galactosidase [4] | solubility ([1]; phosphate buffered solution (pH 7.4)) | change in absorbance between substrate and liberated chromogen anion [2] [nm] | absorbance of the liberated chromogen anion ([2]; after hydrolysis by β-D-galactosidase, phosphate buffered solution) [nm] | extinction coefficient ([2]; uncleaved substrate, at 438 nm, in M-1 cm-1 (unit assumed)) | rate at which the enzyme cleaves the substrate (Kcat) [5] | Km ([5]; read-out: binding constant (Km)) [µM]
1 | CC1(C)C2=CC(=O)C=CC2=Nc2ccc(O)cc21 [Compound 20, 7-hydroxy-9,9-dimethyl-9H-acridin-2-one, reference compound] | soluble and stable | 176 | 635 | 53,100 | 459 | 7.1 |  |  |  |  |  |  | 
2 | CC1(C)C2=CC(=O)C=CC2=Nc2ccc(O[C@@H]3O[C@H](CO)[C@H](O)[C@H](O)[C@H]3O)cc21 [Compound 32, 7-β-D-galactopyranosyloxy-9,9-dimethyl-9H-acridin-2-one] |  |  |  |  | 438 |  | linear dose response | soluble | 196 | 634 | 27,400 | 1.32×10^4 mol. min.^-1 /mol. active site | 170
